Laboratory results taken from patent US20080096894A1, “Anti-Bacterial Compounds” (ASTON UNIVERSITY, priority 2005, published 2008).
Values after ≈ are worked out from the molar mass of the structure shown. Read-outs that look alike come from different tables or passages of the source.

What was measured:
Propionibacterium acnes = test: MIC against Propionibacterium acnes, microtitre double dilution in BHI; format: cell-based; details: Cutibacterium acnes, read-out: MIC
Experimental: Compounds 4PYcq and 4PYOfi were screened against one NCTC stain and seven clinical isolates of Propionibacterium acnes as described below.
Bacterial strains of Propionibacterium acnes, stored on beads at −20° C., were plated onto Brain heart infusion (BHI) agar plates. The cultures were incubated anaerobically for 4 days at 37° C.
Bacterial suspensions were prepared by diluting bacterial suspensions with BHI to obtain bacterial concentrations approximately 2×10^6 cfu/ml.
The test antimicrobial compounds were prepared by diluting the compound with appropriate nutrient broth to obtain correct stock solution. 50 μl of BHI were aliquoted onto the wells of the round-bottomed microtitre plate. 50 μl of the antimicrobial compounds were added onto the wells in the first column of the plate and several serial double dilutions were performed along the wells on each row. Following the series of double dilutions of the test compound the bacterial suspension were added onto each well except on the last column which served as a negative control. The lowest concentration of the test compound which inhibited bacterial growth was regarded as MIC of the compound.

[1] = test system: C. difficile (NCTC 11204 and thirty-two clinical isolates); test: Minimum Inhibitory Concentration (MIC) against C. difficile, microtiter plate, anaerobic, 48 hours; format: cell-based, Clostridium difficile; details: Clostridioides difficile, read-out: MIC
Experimental: (§1) Compounds 4PYcq and 4PYOfi were screened against one NCTC strain and thirty-two clinical isolates of Clostridium difficile as described below.
(§2) The antimicrobial compounds were prepared by adding 5.12 mg of each compound to 1 ml of DMSO. From each solution 100 μl was then aseptically transferred into 1 ml of sterile distilled water to give a concentration of 512 μg/ml. 100 μl of each diluted compound was then added to the first well of a sterile 96-well microliter plate. Serial dilutions were performed to give a concentration range spanning from 0 to 512 μg/ml of each compound. The microtiter plate containing the antimicrobials was left to equilibrate in an anaerobic cabinet for 3 hours before the addition of C. difficile cells. An overnight culture of C. difficile (NCTC 11204) was standardized to an OD^600 of 0.04 (approximately 10^6 CFU/ml), using Wilkins Chalgren broth and was vortexed for 60 seconds to ensure there was a uniform suspension. 100 μl of standardized culture was then added to each well of the microtiter plate, containing the equilibrated antimicrobials. The final concentrations of the antimicrobials in the wells therefore ranged from […] and the concentration of the culture was 10^5 CFU/ml in each well. The microtiter plate was incubated at 37° C., for 48 hours under anaerobic conditions. The MIC was determined as the lowest concentration of antimicrobial agent inhibiting the total growth of C. difficile cells. After incubation, the total solution from each well was aseptically spread onto a separate Wilkins chalgren agar plate. Plates were incubated for 48 hours, at 37° C., under anaerobic conditions. The number of colonies on each plate was counted after incubation and the MBC was determined as the lowest concentration of the antimicrobial agent at which 99.9% of organisms in the original inoculum were killed.

Acinetobater spp. = test: activity against Acinetobacter spp.; format: cell-based; details: Gram-negative bacterium
[2] = test system: C. difficile (NCTC 11204 and thirty-two clinical isolates); test: Minimum Bactericidal Concentration (MBC) against C. difficile, 99.9% kill; format: cell-based, Clostridium difficile; details: Clostridioides difficile, read-out: MBC
Experimental: as §1, §2

[3] = Clostridium difficile Isolate 1
[4] = Clostridium difficile Isolate 2
[5] = Clostridium difficile Isolate 3
[6] = Clostridium difficile Isolate 4
[7] = Clostridium difficile Isolate 5
[8] = Clostridium difficile Isolate 6
[9] = Clostridium difficile Isolate 7
[10] = Clostridium difficile Isolate 8
[11] = Clostridium difficile Isolate 9
[12] = Clostridium difficile Isolate 10
[13] = Clostridium difficile Isolate 11
[14] = Clostridium difficile Isolate 12
[15] = Clostridium difficile Isolate 13
[16] = Clostridium difficile Isolate 14
[17] = Clostridium difficile Isolate 15
[18] = Clostridium difficile Isolate 16
[19] = Clostridium difficile Isolate 17
[20] = Clostridium difficile Isolate 18
[21] = Clostridium difficile Isolate 19
[22] = Clostridium difficile Isolate 20
[23] = Clostridium difficile Isolate 21
[24] = Clostridium difficile Isolate 22
[25] = Clostridium difficile Isolate 23
[26] = Clostridium difficile Isolate 24
[27] = Clostridium difficile Isolate 25
[28] = Clostridium difficile Isolate 26
[29] = Clostridium difficile Isolate 27
[30] = Clostridium difficile Isolate 28
[31] = Clostridium difficile Isolate 29
[32] = Clostridium difficile Isolate 30
[33] = Clostridium difficile Isolate 31
[34] = Clostridium difficile Isolate 32
[35] = Clostridium difficile NCTC 11204

MIC (Propionibacterium acnes; NCTC737, P. acnes NCTC 737): 64 to 128 µg/mL (≈ 182 to 363 µM)
MIC (Propionibacterium acnes; P. acnes Isolate 1): 4 to 8 µg/mL (≈ 11.3 to 22.7 µM)
MIC (Propionibacterium acnes; P. acnes Isolate 2): 32 to 64 µg/mL (≈ 90.8 to 182 µM)
MIC (Propionibacterium acnes; P. acnes Isolate 3): 2 to 4 µg/mL (≈ 5.67 to 11.3 µM)
MIC (Propionibacterium acnes; P. acnes Isolate 4): 128 to 256 µg/mL (≈ 363 to 726 µM)
MIC (Propionibacterium acnes; P. acnes Isolate 5): 64 to 128 µg/mL (≈ 182 to 363 µM)
MIC (Propionibacterium acnes; P. acnes Isolate 6): 64 to 128 µg/mL (≈ 182 to 363 µM)
MIC (Propionibacterium acnes; P. acnes Isolate 7): > 256 µg/mL
MIC [1, 3]: 4 to 8 µg/mL (≈ 11.3 to 22.7 µM)
MIC [1, 4]: 2 to 4 µg/mL (≈ 5.67 to 11.3 µM)
MIC [1, 5]: 2 to 4 µg/mL (≈ 5.67 to 11.3 µM)
MIC [1, 6]: 2 to 4 µg/mL (≈ 5.67 to 11.3 µM)
MIC [1, 7]: 2 to 4 µg/mL (≈ 5.67 to 11.3 µM)
MIC [1, 8]: 2 to 4 µg/mL (≈ 5.67 to 11.3 µM)
MIC [1, 9]: 4 to 8 µg/mL (≈ 11.3 to 22.7 µM)
MIC [1, 10]: 4 to 8 µg/mL (≈ 11.3 to 22.7 µM)
MIC [1, 11]: 4 to 8 µg/mL (≈ 11.3 to 22.7 µM)
MIC [1, 12]: 2 to 4 µg/mL (≈ 5.67 to 11.3 µM)
MIC [1, 13]: 2 to 4 µg/mL (≈ 5.67 to 11.3 µM)
MIC [1, 14]: 4 to 8 µg/mL (≈ 11.3 to 22.7 µM)
MIC [1, 15]: 4 to 8 µg/mL (≈ 11.3 to 22.7 µM)
MIC [1, 16]: 4 to 8 µg/mL (≈ 11.3 to 22.7 µM)
MIC [1, 17]: 4 to 8 µg/mL (≈ 11.3 to 22.7 µM)
MIC [1, 18]: 4 to 8 µg/mL (≈ 11.3 to 22.7 µM)
MIC [1, 19]: 2 to 4 µg/mL (≈ 5.67 to 11.3 µM)
MIC [1, 20]: 2 to 4 µg/mL (≈ 5.67 to 11.3 µM)
MIC [1, 21]: 4 to 8 µg/mL (≈ 11.3 to 22.7 µM)
MIC [1, 22]: 2 to 4 µg/mL (≈ 5.67 to 11.3 µM)
MIC [1, 23]: 4 to 8 µg/mL (≈ 11.3 to 22.7 µM)
MIC [1, 24]: 2 to 4 µg/mL (≈ 5.67 to 11.3 µM)
MIC [1, 25]: 2 to 4 µg/mL (≈ 5.67 to 11.3 µM)
MIC [1, 26]: 4 to 8 µg/mL (≈ 11.3 to 22.7 µM)
MIC [1, 27]: 4 to 8 µg/mL (≈ 11.3 to 22.7 µM)
MIC [1, 28]: 4 to 8 µg/mL (≈ 11.3 to 22.7 µM)
MIC [1, 29]: 4 to 8 µg/mL (≈ 11.3 to 22.7 µM)
MIC [1, 30]: 4 to 8 µg/mL (≈ 11.3 to 22.7 µM)
MIC [1, 31]: 4 to 8 µg/mL (≈ 11.3 to 22.7 µM)
MIC [1, 32]: 2 to 4 µg/mL (≈ 5.67 to 11.3 µM)
MIC [1, 33]: 4 to 8 µg/mL (≈ 11.3 to 22.7 µM)
MIC [1, 34]: 4 to 8 µg/mL (≈ 11.3 to 22.7 µM)
MIC [1, 35]: 4 to 8 µg/mL (≈ 11.3 to 22.7 µM)
SMILES: CC(C)(C)c1cc(/C=N/N=C(\N)c2ccncc2)c(O)c(C(C)(C)C)c1 [Compound 4PYcq]
activity against Acinetobater spp. (in words) (Acinetobater spp.): inactive
MBC [2, 3]: 4 to 8 µg/mL (≈ 11.3 to 22.7 µM)
MBC [2, 4]: 4 to 8 µg/mL (≈ 11.3 to 22.7 µM)
MBC [2, 5]: 2 to 4 µg/mL (≈ 5.67 to 11.3 µM)
MBC [2, 6]: 2 to 4 µg/mL (≈ 5.67 to 11.3 µM)
MBC [2, 7]: 2 to 4 µg/mL (≈ 5.67 to 11.3 µM)
MBC [2, 8]: 2 to 4 µg/mL (≈ 5.67 to 11.3 µM)
MBC [2, 9]: 4 to 8 µg/mL (≈ 11.3 to 22.7 µM)
MBC [2, 10]: 4 to 8 µg/mL (≈ 11.3 to 22.7 µM)
MBC [2, 11]: 4 to 8 µg/mL (≈ 11.3 to 22.7 µM)
MBC [2, 12]: 4 to 8 µg/mL (≈ 11.3 to 22.7 µM)
MBC [2, 13]: 2 to 4 µg/mL (≈ 5.67 to 11.3 µM)
MBC [2, 14]: 4 to 8 µg/mL (≈ 11.3 to 22.7 µM)
MBC [2, 15]: 4 to 8 µg/mL (≈ 11.3 to 22.7 µM)
MBC [2, 16]: 4 to 8 µg/mL (≈ 11.3 to 22.7 µM)
MBC [2, 17]: 4 to 8 µg/mL (≈ 11.3 to 22.7 µM)
MBC [2, 18]: 4 to 8 µg/mL (≈ 11.3 to 22.7 µM)
MBC [2, 19]: 4 to 8 µg/mL (≈ 11.3 to 22.7 µM)
MBC [2, 20]: 2 to 4 µg/mL (≈ 5.67 to 11.3 µM)
MBC [2, 21]: 4 to 8 µg/mL (≈ 11.3 to 22.7 µM)
MBC [2, 22]: 2 to 4 µg/mL (≈ 5.67 to 11.3 µM)
MBC [2, 23]: 4 to 8 µg/mL (≈ 11.3 to 22.7 µM)
MBC [2, 24]: 2 to 4 µg/mL (≈ 5.67 to 11.3 µM)
MBC [2, 25]: 2 to 4 µg/mL (≈ 5.67 to 11.3 µM)
MBC [2, 26]: 4 to 8 µg/mL (≈ 11.3 to 22.7 µM)
MBC [2, 27]: 4 to 8 µg/mL (≈ 11.3 to 22.7 µM)
MBC [2, 28]: 8 to 16 µg/mL (≈ 22.7 to 45.4 µM)
MBC [2, 29]: 4 to 8 µg/mL (≈ 11.3 to 22.7 µM)
MBC [2, 30]: 4 to 8 µg/mL (≈ 11.3 to 22.7 µM)
MBC [2, 31]: 4 to 8 µg/mL (≈ 11.3 to 22.7 µM)
MBC [2, 32]: 2 to 4 µg/mL (≈ 5.67 to 11.3 µM)
MBC [2, 33]: 4 to 8 µg/mL (≈ 11.3 to 22.7 µM)
MBC [2, 34]: 8 to 16 µg/mL (≈ 22.7 to 45.4 µM)
MBC [2, 35]: 4 to 8 µg/mL (≈ 11.3 to 22.7 µM)
